# Test results as given in BigSolDB 2.1.
compound,measurement,setting,value
O=C(O)COc1ccc2ccccc2c1,solubility (mole fraction),"in acetone, 278.15 K",0.038
same,solubility (mole fraction),"in acetone, 283.15 K",0.0427
same,solubility (mole fraction),"in acetone, 288.15 K",0.0481
same,solubility (mole fraction),"in acetone, 293.15 K",0.0543
same,solubility (mole fraction),"in acetone, 298.15 K",0.0613
same,solubility (mole fraction),"in acetone, 303.15 K",0.0693
same,solubility (mole fraction),"in acetone, 308.15 K",0.0785
same,solubility (mole fraction),"in acetone, 313.15 K",0.089
same,solubility (mole fraction),"in acetone, 318.15 K",0.101
same,solubility (mole fraction),"in acetone, 323.15 K",0.115
same,solubility (mole fraction),"in acetonitrile, 278.15 K",0.00475
same,solubility (mole fraction),"in acetonitrile, 283.15 K",0.00574
same,solubility (mole fraction),"in acetonitrile, 288.15 K",0.00695
same,solubility (mole fraction),"in acetonitrile, 293.15 K",0.0084
same,solubility (mole fraction),"in acetonitrile, 298.15 K",0.0101
same,solubility (mole fraction),"in acetonitrile, 303.15 K",0.0123
same,solubility (mole fraction),"in acetonitrile, 308.15 K",0.0148
same,solubility (mole fraction),"in acetonitrile, 313.15 K",0.0178
same,solubility (mole fraction),"in acetonitrile, 318.15 K",0.0214
same,solubility (mole fraction),"in acetonitrile, 323.15 K",0.0258
same,solubility (mole fraction),"in ethanol, 278.15 K",0.0128
same,solubility (mole fraction),"in ethanol, 283.15 K",0.0152
same,solubility (mole fraction),"in ethanol, 288.15 K",0.0181
same,solubility (mole fraction),"in ethanol, 293.15 K",0.0217
same,solubility (mole fraction),"in ethanol, 298.15 K",0.0261
same,solubility (mole fraction),"in ethanol, 303.15 K",0.0315
same,solubility (mole fraction),"in ethanol, 308.15 K",0.0383
same,solubility (mole fraction),"in ethanol, 313.15 K",0.0469
same,solubility (mole fraction),"in ethanol, 318.15 K",0.0582
same,solubility (mole fraction),"in ethanol, 323.15 K",0.0728
same,solubility (mole fraction),"in ethyl acetate, 278.15 K",0.0145
same,solubility (mole fraction),"in ethyl acetate, 283.15 K",0.0167
same,solubility (mole fraction),"in ethyl acetate, 288.15 K",0.0192
same,solubility (mole fraction),"in ethyl acetate, 293.15 K",0.0221
same,solubility (mole fraction),"in ethyl acetate, 298.15 K",0.0255
same,solubility (mole fraction),"in ethyl acetate, 303.15 K",0.0294
same,solubility (mole fraction),"in ethyl acetate, 308.15 K",0.034
same,solubility (mole fraction),"in ethyl acetate, 313.15 K",0.0393
same,solubility (mole fraction),"in ethyl acetate, 318.15 K",0.0455
same,solubility (mole fraction),"in ethyl acetate, 323.15 K",0.0527
same,solubility (mole fraction),"in isobutanol, 278.15 K",0.00557
same,solubility (mole fraction),"in isobutanol, 283.15 K",0.00685
same,solubility (mole fraction),"in isobutanol, 288.15 K",0.00854
same,solubility (mole fraction),"in isobutanol, 293.15 K",0.0106
same,solubility (mole fraction),"in isobutanol, 298.15 K",0.0132
same,solubility (mole fraction),"in isobutanol, 303.15 K",0.0165
same,solubility (mole fraction),"in isobutanol, 308.15 K",0.0208
same,solubility (mole fraction),"in isobutanol, 313.15 K",0.0262
same,solubility (mole fraction),"in isobutanol, 318.15 K",0.0333
same,solubility (mole fraction),"in isobutanol, 323.15 K",0.0422
same,solubility (mole fraction),"in isopropanol, 278.15 K",0.00742
same,solubility (mole fraction),"in isopropanol, 283.15 K",0.00922
same,solubility (mole fraction),"in isopropanol, 288.15 K",0.0115
same,solubility (mole fraction),"in isopropanol, 293.15 K",0.0144
same,solubility (mole fraction),"in isopropanol, 298.15 K",0.0171
same,solubility (mole fraction),"in isopropanol, 303.15 K",0.0217
same,solubility (mole fraction),"in isopropanol, 308.15 K",0.0262
same,solubility (mole fraction),"in isopropanol, 313.15 K",0.03
same,solubility (mole fraction),"in isopropanol, 318.15 K",0.0359
same,solubility (mole fraction),"in isopropanol, 323.15 K",0.0407
same,solubility (mole fraction),"in isopropyl acetate, 278.15 K",0.0105
same,solubility (mole fraction),"in isopropyl acetate, 283.15 K",0.0121
same,solubility (mole fraction),"in isopropyl acetate, 288.15 K",0.014
same,solubility (mole fraction),"in isopropyl acetate, 293.15 K",0.0162
same,solubility (mole fraction),"in isopropyl acetate, 298.15 K",0.0187
same,solubility (mole fraction),"in isopropyl acetate, 303.15 K",0.0216
same,solubility (mole fraction),"in isopropyl acetate, 308.15 K",0.025
same,solubility (mole fraction),"in isopropyl acetate, 313.15 K",0.029
same,solubility (mole fraction),"in isopropyl acetate, 318.15 K",0.0336
same,solubility (mole fraction),"in isopropyl acetate, 323.15 K",0.039
same,solubility (mole fraction),"in methanol, 278.15 K",0.0132
same,solubility (mole fraction),"in methanol, 283.15 K",0.0157
same,solubility (mole fraction),"in methanol, 288.15 K",0.0188
same,solubility (mole fraction),"in methanol, 293.15 K",0.0227
same,solubility (mole fraction),"in methanol, 298.15 K",0.0276
same,solubility (mole fraction),"in methanol, 303.15 K",0.0339
same,solubility (mole fraction),"in methanol, 308.15 K",0.0415
same,solubility (mole fraction),"in methanol, 313.15 K",0.052
same,solubility (mole fraction),"in methanol, 318.15 K",0.0656
same,solubility (mole fraction),"in methanol, 323.15 K",0.0846
same,solubility (mole fraction),"in methyl acetate, 278.15 K",0.0156
same,solubility (mole fraction),"in methyl acetate, 283.15 K",0.0181
same,solubility (mole fraction),"in methyl acetate, 288.15 K",0.021
same,solubility (mole fraction),"in methyl acetate, 293.15 K",0.0243
same,solubility (mole fraction),"in methyl acetate, 298.15 K",0.0283
same,solubility (mole fraction),"in methyl acetate, 303.15 K",0.0329
same,solubility (mole fraction),"in methyl acetate, 308.15 K",0.0382
same,solubility (mole fraction),"in methyl acetate, 313.15 K",0.0445
same,solubility (mole fraction),"in methyl acetate, 318.15 K",0.0517
same,solubility (mole fraction),"in methyl acetate, 323.15 K",0.0602
same,solubility (mole fraction),"in n-pentanol, 278.15 K",0.0114
same,solubility (mole fraction),"in n-pentanol, 283.15 K",0.0137
same,solubility (mole fraction),"in n-pentanol, 288.15 K",0.0164
same,solubility (mole fraction),"in n-pentanol, 293.15 K",0.019
same,solubility (mole fraction),"in n-pentanol, 298.15 K",0.0242
same,solubility (mole fraction),"in n-pentanol, 303.15 K",0.0294
same,solubility (mole fraction),"in n-pentanol, 308.15 K",0.0362
same,solubility (mole fraction),"in n-pentanol, 313.15 K",0.0433
same,solubility (mole fraction),"in n-pentanol, 318.15 K",0.0526
same,solubility (mole fraction),"in n-pentanol, 323.15 K",0.0691
same,solubility (mole fraction),"in n-propanol, 278.15 K",0.0101
same,solubility (mole fraction),"in n-propanol, 283.15 K",0.012
same,solubility (mole fraction),"in n-propanol, 288.15 K",0.0146
same,solubility (mole fraction),"in n-propanol, 293.15 K",0.0178
same,solubility (mole fraction),"in n-propanol, 298.15 K",0.0214
same,solubility (mole fraction),"in n-propanol, 303.15 K",0.0273
same,solubility (mole fraction),"in n-propanol, 308.15 K",0.0324
same,solubility (mole fraction),"in n-propanol, 313.15 K",0.04
same,solubility (mole fraction),"in n-propanol, 318.15 K",0.0506
same,solubility (mole fraction),"in n-propanol, 323.15 K",0.0635
same,solubility (mole fraction),"in n-propyl acetate, 278.15 K",0.0123
same,solubility (mole fraction),"in n-propyl acetate, 283.15 K",0.0142
same,solubility (mole fraction),"in n-propyl acetate, 288.15 K",0.0164
same,solubility (mole fraction),"in n-propyl acetate, 293.15 K",0.0189
same,solubility (mole fraction),"in n-propyl acetate, 298.15 K",0.0219
same,solubility (mole fraction),"in n-propyl acetate, 303.15 K",0.0253
same,solubility (mole fraction),"in n-propyl acetate, 308.15 K",0.0293
same,solubility (mole fraction),"in n-propyl acetate, 313.15 K",0.0339
same,solubility (mole fraction),"in n-propyl acetate, 318.15 K",0.0393
same,solubility (mole fraction),"in n-propyl acetate, 323.15 K",0.0454
